Patent US20030017976A1, “Therapeutic properties of liposome-encapsulated immunomodulators” (priority 1998, published 2003)
“And” between values parts separate entries of the source, which are not always exact repeats. Equal entries are not always repeated. Where two headings read alike, the source gives them in different places. Marks after values point to notes of the source that are not given here.

Experiments:
[1] = tested on: L3.6pl human pancreatic tumors; test: Therapy of L3.6pl human pancreatic tumors in nude mice; type: in vivo, mouse; conditions: CPT-11 100 mg/kg i.p. once a week +/− oral JBT 3002 (tablet) 0.05 mcg/dose
Protocol: Table 19 (A, B, C). Therapy of human pancreatic carcinoma liver metastasis. The pancreas of nude mice were injected with 1×10^6 viable human pancreatic cancer L3.6pl cells. […] This regimen was repeated on a weekly basis for 3 weeks. The mice were killed. Pancreatic tumors, liver metastases, and lymph node metastasis were quantified.

[2] = tested on: CT-26 colon cancer liver metastasis; test: Combination therapy of MTP-PE and CPT-11 for CT-26 colon cancer liver metastasis
C57BL/6 mice [3] = test: Prevention of CPT-11 induced intestinal damage and morbidity by oral immunomodulator; type: in vivo, mouse; conditions: for Death / Morbidity: 4 daily i.p., oral saline or free-form MTP-PE 100 ug/dose for one week before
Protocol: Experimental Design and Methods. […] Tissue was harvested 7 days after the last injection (small intestine and colon distal to the cecum). Histology was prepared. Some mice were monitored for the presence of drug toxicity.
Example 6 has shown that 100, 150, and 200 mg/kg at 4 consecutive i.p. administrations are highly toxic to C57BL/6 mice.

CT-26 colon carcinoma = test: Therapy of experimental liver metastasis of CT-26 colon carcinoma with CPT-11 and oral JBT 3002
[4] = Body weight change and deaths during therapy of CT-26 bearing BALB/c mice; type: in vivo, mouse
C57BL/6 mice [5] = tested on: C57BL/6 mice
IL-15 = test: Ileum and liver lesion histology, BrdUrd and IL-15 expression after JBT 3002 and CPT-11; type: in vivo, mouse
Protocol: BALB/c mice were injected with CT-26 colon cancer cells into the spleen. […] Four days after the last injection of CPT-11, some mice were killed and their ileum was harvested and prepared for histology, immunohistochemistry, and molecular biology analyses.

CT-26P colon carcinoma = test: Combination therapy of CT-26P colon carcinoma with CPT-11 and oral liposomal JBT3002; type: in vivo, mouse; conditions: day 17; for Liver Weights, mean / Liver Weights, single mice: alone or + oral liposomal JBT3002 1 μg/dose
Protocol: This course of therapy was repeated weekly for about three weeks prior to tissue harvest. Experimental Groups/Procedures: 40 Balb/c mice were divided into 8 groups of 5 mice each. On day 0, the spleens of the mice were injected with 15,000 cultured CT-26P cells. The groups were then treated as follows: The spleens of Balb/c mice were injected with 15,000 cultured CT-26P colon carcinoma cells on day 0. […] Treated mice received two weeks of chemotherapy and three weeks of the macrophage activator. Tissues were harvested on day 17. The spleens and livers were weighed, the extent of metastasis was graded (denoted below) and histology prepared.

[6] = CPT-11 50 mg/kg, oral saline or MTP-PE
[7] = Table 10, oral MLV-HBSS, CPT-11 100 mg/kg i.p. once a week, day 23
[8] = Table 11, CPT-11 100 mg/kg i.p. once a week alone, day 24
[9] = Table 12, oral MLV-HBSS, CPT-11 100 mg/kg 4 daily i.p. (intensive), day 14
[10] = Table 13, oral MLV-HBSS, CPT-11 100 mg/kg i.p. once a week, day 23
[11] = Table 14, MLV-JBT 3002 1.0 μg/dose or FF-JBT 3002 0.05 μg/dose oral 3 days, CPT-11 100 mg/kg 4 daily i.p., day 21
[12] = Table 15, oral JBT 3002 0.05 μg/dose 3 consecutive days and/or CPT-11 100 mg/kg 4 daily i.p., day 21
[13] = Table 16, oral JBT3002 0.05 μg dose thrice weekly 3 weeks and/or CPT-11 100 mg/kg i.p. once a week, day 24

## CCc1c2c(nc3ccc(OC(=O)N4CCC(N5CCCCC5)CC4)cc13)-c1cc3c(c(=O)n1C2)COC(=O)[C@]3(O)CC [CPT-11, Irinotecan]
[1]; 31 days
  Incidence LN met: 7/10
  Incidence WT/PC: 0/10
  Incidence liver met: 0/10
  Tumor weight, Average: 152.10 mg
  Tumor weight, Max: 375 mg
  Tumor weight, Median: 117.5 mg
  Tumor weight, Min: 0 mg
  tumor weight (range): (0-375) mg
[1]; 31 days after tumor cell injection, 100 mg/kg
  Tumor weight, single animals: 80 mg and 375 mg and 241 mg and 0 mg (2×) and 98 mg and 318 mg and 137 mg and 205 mg and 67 mg
[2]; [6]
  Liver Median no. metastases: 30
  Liver weight: 2.0 ± 0.3
  Spleen Tumor size: 8.3 ± 2.0 mm
  Spleen Weight: 0.6 ± 0.2 g
[2]; CPT-11 100 mg/kg, oral saline
  Death of mice: ------------------All mice died.------------------------
[2]; CPT-11 25-100 mg/kg, CT-26P injected into the spleen
  tumor burden of the liver: dose-dependent reduction in tumor burden of the liver
C57BL/6 mice [3]; CPT-11 100 mg/kg
  Death: 0/10
  Morbidity: 8/10
C57BL/6 mice [3]; CPT-11 100 mg/kg, oral MTP-PE 100 μg/dose three consecutive days per week, C57BL/6 mice
  damage to intestinal tissue: induces loss of structural integrity of duodenal and large colon crypts
C57BL/6 mice [3]; CPT-11 150 mg/kg
  Death: 6/10
  Morbidity: 10/10
C57BL/6 mice [3]; CPT-11 200 mg/kg
  Death: 9/10
  Morbidity: 10/10
C57BL/6 mice [3]; oral PBS or MTP-PE 100 μg/dose 3×/week for 3 weeks, then 4 i.p. injections of CPT-11
  GI toxicity (histology of intestinal villi and lumen): severe damage to the intestinal villi and lumen
C57BL/6 mice [3]; oral saline or JBT3002 0.1, 1.0 and 10 μg/dose in PC liposomes, then CPT-11 100 mg/kg i.p. 4 days
  intestinal toxicity (histology): induced severe toxicity
CT-26 colon carcinoma; [7]
  Liver metastasis Incidence: 5/5
  Liver weight: 1.8 ± 0.3^b g
  Spleen (primary) Incidence: 5/5
CT-26 colon carcinoma; [8]
  Liver metastasis Incidence: 5/5
  Liver weight: 1.7 ± 0.3^c g
  Spleen (primary) Incidence: 5/5
CT-26 colon carcinoma; [9]
  Liver metastasis Incidence: 2/5
  Liver weight: 1.2 ± 0.1 g
  Spleen (primary) Incidence: 5/5
CT-26 colon carcinoma; [10]
  Liver metastasis Incidence: 5/5
  Liver weight: 2.6 ± 0.3 g
  Spleen (primary) Incidence: 5/5
CT-26 colon carcinoma; [11]
  Liver metastasis Incidence: 0/5^b
  Liver weight: 1.2 ± 0.2 g
  Spleen tumor Incidence: 5/5^b
CT-26 colon carcinoma; [12]
  Liver metastasis Incidence: 1/10^b
  Liver weight: 1.9 ± 0.3^c,d g
  Spleen tumor Incidence: 6/10^b
CT-26 colon carcinoma; [13]
  Liver metastasis Incidence: 8/10
  Liver weight: 2.0 ± 0.9^c g
  Spleen tumor Incidence: 7/10
[4]; [7]
  ΔBW: −1.7%
[4]; [8]
  ΔBW: −1.5%
[4]; [9]
  ΔBW: −17.6%
[4]; [10]
  ΔBW: 1.2%
[4]; Table 14, MLV-JBT 3002 1.0 μg/dose or FF-JBT 3002 0.05 μg/dose oral 3 days, CPT-11 100 mg/kg 4 daily i.p., day not given
  ΔBW: −24.0%
[4]; Table 15, CPT-11 100 mg/kg 4 daily i.p. alone, 10 mice, 100 mg/kg
  Mice that died during therapy: 7 of 10
C57BL/6 mice [5]; 100 mg/kg CPT-11 i.p. Day 1-4, C57BL6 mice
  Survival: 5/5
C57BL/6 mice [5]; 150 mg/kg CPT-11 i.p. Day 1-4, C57BL6 mice
  Survival: 3/5
C57BL/6 mice [5]; 200 mg/kg CPT-11 i.p. Day 1-4, C57BL6 mice
  Survival: 0/5
C57BL/6 mice [5]; CPT-11 50, 75 or 100 mg/kg once a day for 4 days (i.p.)
  deaths: None of the injected mice died
C57BL/6 mice [5]; i.p. Day 1-4, C57BL6 mice
  lethal dose: 200 mg/kg
IL-15; CPT-11 100 mg/kg, JBT 3002 0.05 μg/dose
  intestinal architecture of ileum (H&E): produces disruption of the intestinal architecture
IL-15; mouse, in vivo
  expression of IL-15 in the ileum: significant decrease in expression of IL-15
CT-26P colon carcinoma; CPT-11 25 mg/kg once a week, alone or + oral JBT3002 1 μg/dose in PC liposomes 3x/week
  Spleen Weights, mean: 1.284 ± 0.257 grams
CT-26P colon carcinoma; CPT-11 25 mg/kg once a week, alone or + oral JBT3002 1 μg/dose in PC liposomes 3x/week, 25 mg/kg
  Spleen Weights, single mice: 1.486 grams and 0.888 grams and 1.056 grams and 1.588 grams and 1.403 grams
CT-26P colon carcinoma; CPT-11 25 mg/kg once a week
  Liver Weights, mean: 1.670 ± 0.301 grams
CT-26P colon carcinoma; CPT-11 25 mg/kg once a week, 25 mg/kg
  Liver Weights, single mice: 1.416 grams and 1.460 grams and 2.246 grams
CT-26P colon carcinoma; CPT-11 50 mg/kg once a week, alone or + oral JBT3002 1 μg/dose in PC liposomes 3x/week
  Spleen Weights, mean: 0.746 ± 0.561 grams
CT-26P colon carcinoma; CPT-11 50 mg/kg once a week, 50 mg/kg
  Liver Weights, single mice: 1.407 grams and 1.205 grams and 1.525 grams
CT-26P colon carcinoma; CPT-11 100 mg/kg once a week, alone or + oral JBT3002 1 μg/dose in PC liposomes 3x/week
  Spleen Weights, mean: 0.216 ± 0.110 grams
CT-26P colon carcinoma; CPT-11 100 mg/kg once a week
  Liver Weights, mean: 1.203 ± 0.065 grams
CT-26P colon carcinoma; CPT-11 100 mg/kg once a week, 100 mg/kg
  Liver Weights, single mice: 1.105 grams and 1.252 grams and 1.172 grams and 1.293 grams and 1.196 grams
